Experimental data as given in paper PMC8154156 (ACS Omega, 2021).

Legend:
T5 exonuclease (T5E) [1] = molecular target: T1, T5 exonuclease (T5E) (Escherichia phage T5, UniProt P06229); test: agarose gel, degradation of; type: biochemical; conditions: high nucleotide concentrations
T1 sequence (P06229 2-291): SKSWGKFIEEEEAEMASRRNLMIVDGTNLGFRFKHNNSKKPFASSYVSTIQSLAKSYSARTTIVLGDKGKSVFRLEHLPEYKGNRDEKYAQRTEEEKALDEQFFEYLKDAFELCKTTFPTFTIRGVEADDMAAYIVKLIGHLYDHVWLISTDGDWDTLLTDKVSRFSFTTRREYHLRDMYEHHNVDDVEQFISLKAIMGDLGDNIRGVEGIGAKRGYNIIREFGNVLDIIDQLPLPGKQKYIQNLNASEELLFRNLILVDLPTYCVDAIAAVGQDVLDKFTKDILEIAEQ

T5 exonuclease (T5E) [2] = molecular target: T1, T5 exonuclease (T5E); test: flap endonuclease activity assay; type: biochemical
[3] = molecular target: variola DNA topoisomerase I (vTopI) (Variola virus human/India/Ind3/1967, UniProt P32989)
Sequence of variola DNA topoisomerase I (vTopI) (P32989 whole entry, looked up): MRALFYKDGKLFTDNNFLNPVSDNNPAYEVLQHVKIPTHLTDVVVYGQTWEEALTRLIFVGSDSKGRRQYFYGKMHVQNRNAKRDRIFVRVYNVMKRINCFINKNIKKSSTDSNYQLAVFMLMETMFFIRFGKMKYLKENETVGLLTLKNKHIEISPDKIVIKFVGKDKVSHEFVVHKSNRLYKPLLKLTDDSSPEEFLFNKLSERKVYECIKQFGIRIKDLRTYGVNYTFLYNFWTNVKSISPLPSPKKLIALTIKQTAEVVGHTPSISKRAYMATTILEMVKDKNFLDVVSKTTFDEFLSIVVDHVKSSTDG

[4] = molecular target: T2, E. coli DNA topoisomerase I (EcTopI) (Escherichia coli, UniProt P06612); test: agarose gel DNA relaxation assay; type: biochemical
T2 sequence (P06612 1-865): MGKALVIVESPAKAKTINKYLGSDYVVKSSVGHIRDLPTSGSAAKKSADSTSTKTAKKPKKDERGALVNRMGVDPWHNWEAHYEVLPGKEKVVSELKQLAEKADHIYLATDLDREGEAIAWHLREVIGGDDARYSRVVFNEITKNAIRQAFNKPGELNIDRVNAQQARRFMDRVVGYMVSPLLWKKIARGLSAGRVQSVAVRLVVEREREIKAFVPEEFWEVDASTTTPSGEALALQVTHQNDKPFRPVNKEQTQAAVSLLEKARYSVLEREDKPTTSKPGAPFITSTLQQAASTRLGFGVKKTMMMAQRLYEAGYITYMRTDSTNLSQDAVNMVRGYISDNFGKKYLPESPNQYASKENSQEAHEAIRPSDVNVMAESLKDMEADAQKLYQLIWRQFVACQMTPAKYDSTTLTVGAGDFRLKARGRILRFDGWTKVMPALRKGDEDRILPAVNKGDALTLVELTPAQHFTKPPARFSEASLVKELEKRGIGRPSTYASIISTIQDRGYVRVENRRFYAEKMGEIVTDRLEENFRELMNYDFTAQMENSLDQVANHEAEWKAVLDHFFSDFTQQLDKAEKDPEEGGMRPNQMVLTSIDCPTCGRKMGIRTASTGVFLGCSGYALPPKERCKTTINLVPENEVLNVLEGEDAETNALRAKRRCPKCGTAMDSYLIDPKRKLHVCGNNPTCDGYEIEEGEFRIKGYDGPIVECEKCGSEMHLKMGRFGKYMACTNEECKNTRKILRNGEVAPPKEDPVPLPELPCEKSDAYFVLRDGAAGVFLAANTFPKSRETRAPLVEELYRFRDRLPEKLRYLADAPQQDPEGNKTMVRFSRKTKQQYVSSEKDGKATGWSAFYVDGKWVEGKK

| Structure (SMILES) | agarose gel, degradation of (-) sc pAB1 (T5 exonuclease (T5E) [1]) | further results |
| --- | --- | --- |
| Nc1nc2c(ncn2[C@@H]2O[C@H](COP(=O)(O)OP(=O)(O)OP(=O)(O)O)[C@@H](O)[C@H]2O)c(=O)[nH]1 [GTP] | high concentrations of ATP, GTP, CTP, and UTP inhibited the degradation of (−) sc pAB1 |  |
| Nc1ncnc2c1ncn2[C@@H]1O[C@H](COP(=O)(O)OP(=O)(O)OP(=O)(O)O)[C@@H](O)[C@H]1O [ATP] | high concentrations of ATP, GTP, CTP, and UTP inhibited the degradation of (−) sc pAB1 |  |
| Nc1ccn([C@@H]2O[C@H](COP(=O)(O)OP(=O)(O)OP(=O)(O)O)[C@@H](O)[C@H]2O)c(=O)n1 [CTP] | high concentrations of ATP, GTP, CTP, and UTP inhibited the degradation of (−) sc pAB1 |  |
| O=c1ccn([C@@H]2O[C@H](COP(=O)(O)OP(=O)(O)OP(=O)(O)O)[C@@H](O)[C@H]2O)c(=O)[nH]1 [UTP] | high concentrations of ATP, GTP, CTP, and UTP inhibited the degradation of (−) sc pAB1 |  |
| Cc1ccc(C(=O)Nc2ccc(S(=O)(=O)O)c3cc(S(=O)(=O)O)cc(S(=O)(=O)O)c23)cc1NC(=O)c1cccc(NC(=O)Nc2cccc(C(=O)Nc3cc(C(=O)Nc4ccc(S(=O)(=O)O)c5cc(S(=O)(=O)O)cc(S(=O)(=O)O)c45)ccc3C)c2)c1 [suramin] |  | IC50 (T5 exonuclease (T5E) [2]): 22.6 µM; T5 exonuclease-based fluorescence HTS at 20 μM [3]: The only positive hit is the polynegatively charged suramin (Figure S6b) |
| O=C1C=C(NCCc2cc(Br)c(O)c(Br)c2)C(=O)c2ncccc21 [NSC668394] |  | IC50 [4]: 8 ± 0.2 µM |
